In experiment [1] the test system is Human keratinocytes (TGase I). Description: Transglutaminase (TGase I) ELISA in cultured keratinocytes, normalized to DNA (Example 1). The format is cell-based. The conditions noted are these: for dose dependence of decrease in transglutaminase level: 2.5×10^-7 M to 2.5×10^-9 M; for mean TGase/DNA × 10^-4 ± s.d: 72 hours, n = 3, Control 2.44 ± 0.24. As for the experimental part:
Human keratinocytes, isolated from neonatal foreskin by trypsin treatment were grown in Dulbecco Modification Eagle (DME) Hams F12 (1:1) medium/10% fetal calf serum in the presence of irradiated 3T3 mouse fibroblasts for establishing dividing keratinocyte colonies. Cells were grown under the above condition until their second passage and kept frozen for future use. Frozen second passage keratinocytes were thawed and plated into the above medium and grown for five days before they were switched to a serum-free MCDB 153-based medium keratinocyte growth medium (KGM) from Clonetics Corporation, San Diego, Calif., containing 0.15 mM Ca, or keratinocyte serum-free media (KSFM) from GIBCO containing 0.09 mM Ca). On day 7, when the cells were 80-90% confluent, they were trypsinized and plated in the serum-free medium for the various experiments.
(§1) During the process of terminal differentiation in the epidermis, a 15 nm thick layer of protein, known as the cornified envelope (CE) is formed on the inner surface of the cell periphery. The CE is composed of numerous distinct proteins which have been cross-linked together by the formation of N^ε -(γ-glutamyl) lysine isodipeptide bonds catalyzed by the action of at least two different transglutaminases (TGases) expressed in the epidermis. TGase I is expressed in abundance in the differentiated layers of the epidermis, especially the granular layer, but is absent in the undifferentiated basal epidermis. Thus TGase I is a useful marker of epidermal keratinocyte differentiation with high TGase I levels indicating a more differentiated state. An ELISA based TGase I assay, using a TGase I antibody, was used to assess the state of differentiation of the cultured keratinocytes in the examples that follow.
For Example 1, the following procedure was used:
Keratinocytes (cultured as described above) were plated in 96 well plates at a density of 3,000 cells per well in 200 μl media. After incubation for four days the media was changed to media containing test compounds (six replicates per test). The cells were cultured for a further 72 hours after which time the media was aspirated and the plates stored at -70° C. Plates were removed from the freezer, and the cells washed with PBS. 100 μl sterile water was added and the cells were freeze fractured by freezing at -70° C. then thawing. The cells were incubated for one hour at room temperature (R/T) with PBS/3% BSA (wash buffer, bovine serum albumin), then rinsed with a fresh aliquot of wash buffer. Cells were incubated with 50 μl of primary antibodies monoclonal anti-human transglutaminase mouse antibody (IgG) obtained from Biomedical Industries diluted 1:2,000 in wash buffer for one hour, 37° C. then rinsed two times with wash buffer. Cells were then incubated with 50 μl of secondary antibody (Fab fragment, peroxidase conjugated anti-mouse IgG obtaining from Amersham) diluted 1:4,000 in wash buffer for one hour at 37° C., then rinsed two times with wash buffer. Cells were incubated with substrate solution (4 mg o-phenylene diamine and 3.3 μl 30% H2 O2 in 10 ml 0.1 M citrate buffer pH 5.0) for five minutes, R/T, in darkness (under aluminum foil). The reaction was stopped by the addition of 50 μl 4N H2 SO4. The absorbance of samples was read at 492 nm in the plate reader. Out of the six replicates, four were treated with both antibodies, two were treated only with the secondary antibody (i.e., to determine background binding of enzyme conjugated Ab). TGase levels were determined by subtracting background from the readings from each treatment and determining mean±s.d. for the replicates exposed to both Ab.
The level of TGase-1 detected after treatment of the cells could be influenced by cell number, i.e., the greater the number of cells the greater the level of TGase-1 detected. The level of TGase-1 was normalized to DNA content of the cells in the same well thus eliminating variation due to differences in cell number. […]
In general terms: ELISA stands for enzyme-linked immunosorbent assay.

Experiment [2] relates to Human keratinocytes (TGase I). Description: Transglutaminase (TGase I) ELISA in cultured keratinocytes, normalized to DNA (Example 3). The class given is cell-based. The conditions noted are these: for mean TGase/DNA × 10^5 ± s.d: Control 57.80 ± 8.61; for activity at 0.25 µM: Homo sapiens, Keratinocyte, read-out: mean TGase/DNA (% control). The protocol: Human keratinocytes, isolated from neonatal foreskin by trypsin treatment were grown in Dulbecco Modification Eagle (DME) Hams F12 (1:1) medium/10% fetal calf serum in the presence of irradiated 3T3 mouse fibroblasts for establishing dividing keratinocyte colonies. Cells were grown under the above condition until their second passage and kept frozen for future use. […] On day 7, when the cells were 80-90% confluent, they were trypsinized and plated in the serum-free medium for the various experiments.
as §1
Keratinocytes (cultured as described above) were plated in 96 well plates at a density of 3,000 cells per well in 200 μl of cell culture media. After incubation for four days, the media was changed to media containing test compounds (six replicates per test). The cells were cultured for a further 72 hours after which time the media was aspirated and the plates stored at -70° C. After the plates were removed from the freezer, the cells were further freezed fractured by freezing and thawing and then washed 3× with PBS. The cells were incubated for one hour at room temperature (R/T) with TBS/5% BSA buffer. Cells were then incubated with 100 μl of monoclonal anti-human transglutaminase (IgG) mouse antibody (primary antibody) obtained from Biomedical Technologies Inc. diluted 1:2000 in TBS/1% BSA buffer for two hours at 37° C., and then rinsed six times with wash buffer (TBS/1% BSA/0.05% Tween-20). Cells were next incubated with 100 μl of Fab fragment, peroxidase conjugated anti-mouse IgG antibody (secondary antibody) from Amersham diluted 1:4,000 in wash buffer for two hours at 37° C. and then rinsed three times with wash buffer and three times with PBS. Cells were incubated with substrate solution (4 mg o-phenylene diamine and 3.3 μl 30% H2 O2 in 10 mL 0.1M citrate buffer, pH 5.0) for five minutes at R/T and in darkness (under aluminum foil). […] The absorbance of samples was read at 492 nm in the plate reader. […] Transglutaminase I levels were determined by subtracted background from the readings from each treatment and determining the mean s.d. for the replicates exposed to both antibodies.
The level of TGase-1 was normalized to DNA content of the cells in the same well thus eliminating variation due to differences in cell number. DNA quantitation is a particularly useful indicator of cell number, including keratinocyte cell number, because each cell has to all intents and purposes an identical genome and therefore an identical quantity of DNA. […] Quantitation of DNA was used to normalize the TGase data to cell number. […]

In the next experiment the test system is ARAT. Description: In vitro Microsomal Esterification of Retinol, ARAT catalyzed. The format is biochemical, bovine. The note with it: 100 μM; 1 hour at 37° C.; pH 7. The protocol:
(§2) Microsomes are obtained as described in: J. C. Saari and D. L. Bredberg, "CoA and Non-CoA Dependent Retinol Esterification in Retinal Figment Epithelium" J. Biol. Chem. 263, 8084-90 (1988).
(§3) A solution containing 0.1M sodium phosphate pH 7 buffer, 5 mM dithiothreitol, 2 mg/ml bovine serum albumin, 40 micromolar palmitoyl CoA, 40 micromolar dilauroyl phosphatidyl choline, 10 micromolar retinol and a test compound or a solvent blank, is incubated for 1 hour at 37° C. with a microsomal fraction isolated from bovine retinal pigment epithelial cells. After incubation, the reaction was quenched by addition of an equal volume of ethanol, and the retinyl esters formed (retinyl laurate from the LRAT catalyzed reaction and retinyl palmitate from ARAT catalyzed reaction) are extracted with hexane. The hexane layer is removed, evaporated under nitrogen, and the residue analyzed by HPLC on a 3.9×300 mm C18 reversed phase column using a 80% methanol in tetrahydrofuran mobile phase and fluorescence detection (325 nm excitation, 480 nm emission) to quantitate the retinyl ester. The quantity of ester formed in the presence of the solvent blank is taken as 100%, and this is used to calculate the percent inhibition of ester formation for the compounds tested. As a control, an aliquot of microsomes is inactivated by boiling for 5 minutes, which results in at least 95% inhibition of ester formation. […]

Another experiment has as its target T1, LRAT (Bos taurus, UniProt Q9BGL2).
T1 construct: microsomal fraction isolated from bovine retinal pigment epithelial cells; from tissue; host or cells: microsomes of bovine retinal pigment epithelial cells
T1 sequence (Q9BGL2 1-230): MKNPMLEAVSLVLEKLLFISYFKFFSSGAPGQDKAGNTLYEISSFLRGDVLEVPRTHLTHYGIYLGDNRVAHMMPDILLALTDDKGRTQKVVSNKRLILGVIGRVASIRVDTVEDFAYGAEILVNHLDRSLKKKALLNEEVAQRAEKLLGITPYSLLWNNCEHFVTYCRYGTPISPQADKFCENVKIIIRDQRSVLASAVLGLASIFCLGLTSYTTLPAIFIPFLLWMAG
Description: In vitro Microsomal Esterification of Retinol, LRAT catalyzed. The note with it: 1 hour at 37° C., pH 7. The format is biochemical, bovine. As for the experimental part: as §2, §3

Read-outs that look alike come from different tables or passages of the source.

As to `CC1=C(/C=C/C(C)=C/C=C/C(C)=C/CO)C(C)(C)CCC1` [Retinol], in experiment [1], the “dose dependence of decrease in transglutaminase level” value was “dose dependent”. For the same molecule, the “mean TGase/DNA × 10^-4 ± s.d” value in experiment [1] (2.5 × 10^-7 M) is recorded as 1.14 ± 0.22 × 10^-4; in experiment [1] (2.5 × 10^-8 M), 1.89 ± 0.30 × 10^-4; in experiment [1] (2.5 × 10^-9 M) it was 2.70 ± 0.59 × 10^-4. Also, the “inhibition of keratinocyte TG1 level when used alone (in words)” value in experiment [2] (2.5×10^-7 M retinol, 10^-4 M Formula A, used alone, compared with 2.5×10^-7 M retinoic acid) was “less effective”. The “mean TGase/DNA × 10^5 ± s.d” value in experiment [2] (2.5 × 10^-7 M, 72 hours, n = 3) is given as 45.60 ± 3.92 × 10^5. The activity at 0.25 µM in experiment [2] (2.5 × 10^-7 M, 72 hours, n = 3) was determined as 79%.

For the molecule `CC1=C(/C=C/C(C)=C/C=C/C(C)=C/C(=O)O)C(C)(C)CCC1` [Retinoic acid], the “dose dependence of decrease in transglutaminase level” value in experiment [1] is “dose dependent”. For the same molecule, in experiment [1] (2.5×10^-7 M, 2.5×10^-8 M and 2.5×10^-9 M, vs retinol at same concentration), the “decrease of keratinocyte differentiation compared with corresponding retinol treatments” value is reported as “significantly greater extent”. Further, the “effect on keratinocyte differentiation vs ethanol control” value in experiment [1] (all concentrations tested: 2.5×10^-7 M, 2.5×10^-8 M and 2.5×10^-9 M) is “decreased keratinocyte differentiation”. In addition, in experiment [2] (2.5 × 10^-7 M, 72 hours, n = 3), the “mean TGase/DNA × 10^5 ± s.d” value is reported as 39.99 ± 5.28 × 10^5. The activity at 0.25 µM in experiment [2] (72 h) came out at 69%.

The term inhibition denotes the relative decrease from the control value, in per cent. Read a high inhibition as a strong effect. As for `CCCCCCCC(=O)NC(COC)COC` [Formula C], the “% INHIBITION, ARAT” value with ARAT was 0%. The molecule also registered an inhibition at 100 µM against LRAT of 0%.

(Values after patent publication US5955092A, “Skin care compositions containing an n-substituted fatty acid amide and retinol or retinyl ester” (Elizabeth Arden Co., Division of Conopco, Inc., priority 1996, dated 1999).)
